Data as given in EP3041353B1, “COMPOSITIONS COMPRISING BACTERIOSTATIC AGENTS AND BRILLIANT BLUE G” (priority 2013, dated 2015).

Columns and labels:
HCE-Zellen = type: cell-based, human
Protocol: Die Erfindung wird im Folgenden rein zu Veranschaulichungszwecken anhand der angehängten Figuren und von Ausführungsbeispielen näher erläutert. • Figur 1 Effekt von 0,025% BBG auf die Toxizität von unterschiedlichen Konzentrationen (in Gew.-%) von Benzalkoniumchlorid (BAK) auf HCE-Zellen (HCE = human corneal epithelium, Menschliche Hornhautepithelzellen) bei verschiedenen Einwirkdauern (5, 30, 60 min). Oben: BAK ohne BBG. Unten: BAK mit BBG. Inkubationsmedium: Phosphat-gepufferte Kochsalzlösung (PBS). • Figur 2 Effekt von BBG (in Gew.-%) in unterschiedlichen Konzentrationen auf die Toxizität von BAK bei 0,003% (oben) und 0,008% (unten). PBS = Phosphat-gepufferte Kochsalzlösung; BBS = balanced salt solution (ausgeglichene Salzlösung). • Figur 3 Effekt von BBG (0,025 Gew.-%) auf die Toxizität von Octenidindihydrochlorid (Oct) in unterschiedlichen Konzentrationen (in Gew.-%) nach 5 min Inkubation (oben) und 30 min Inkubation (unten). Octenidin alone = Octenidin allein (ohne BBG). • Figur 4 Effekt von BBG (0,025 %) auf die Toxizität von Cetylpyridiniumchlorid (CPC) in unterschiedlichen Konzentrationen (in Gew.-%) nach 5 min Inkubation (oben) und 30 min Inkubation (unten). CPC alone = Cetylpyridiniumchlorid allein (ohne BBG). • Figur 5 Effekt von BBG (0,025 %) auf die Toxizität von Chlorhexidin (CHex) in Form von Chlorhexidindigluconat in unterschiedlichen Konzentrationen (in Gew.-%) nach 5 min Inkubation (oben) und 30 min Inkubation (unten). Chlorhexidin alone = Chlorhexidin allein (ohne BBG)
Figur 1 zeigt die Wirkung von BBG 0,025% Gew.-% auf die Toxizität von unterschiedlichen Konzentrationen (in Gew.-%) von Benzalkoniumchlorid (BAK) auf HCE-Zellen (HCE = human corneal epithelium, Menschliche Hornhautepithelzellen) bei verschiedenen Einwirkdauern (5, 30, 60 min).
Figur 2 zeigt die Wirkung von BBG (in Gew.-%) in unterschiedlichen Konzentrationen und zwei unterschiedlichen Medien (PBS und BSS) auf die Toxizität von BAK bei 0,003% (oben) und 0,008% (unten) bei HCE-Zellen. Die Schutzwirkung von BBG bei niedrigeren BAK-Konzentrationen setzt schon bei 0,003% BBG ein. Bei höheren BAK-Konzentrationen sind 0,015% notwendig.
Figur 3 zeigt die Wirkung von BBG (0,025 Gew.-%) auf die Toxizität von Octenidin (Oct) Form von Octenidindihydrochlorid in unterschiedlichen Konzentrationen (in Gew.-%) nach 5 min Inkubation (oben) und 30 min Inkubation (unten). Octenidin alone = Octenidin allein (ohne BBG). […] BBG (0,025 Gew.-%) kann diesen Effekt bei 5 min Inkubation (links) bis zu einer Oct-Konzentration von 0,01% (der höchsten getesteten Konzentration) verhindern. Bei 30 min Einwirkzeit (rechts) ist erst ab 0,009 Gew.-% Oct der Schutz nicht mehr maximal.
Die Figuren 4 und 5 zeigen die Wirkung von BBG (0,025 Gew.-%) auf die Toxizität von Cetylpyridiniumchlorid (CPC, Fig. 4) und Chlorhexidin (CHex in Form von Chlorhexidindigluconat, Fig. 5) in unterschiedlichen Konzentrationen (in Gew.-%) nach 5 min Inkubation (jeweils oben) und 30 min Inkubation (jeweils unten).

Bacillus sp. = assay: Bacteriostatic effect of BAK with BBG/BBR: turbidity after 24 h incubation; type: cell-based; design: key to Bakterienwachstum nach 24 h Inkubation: +: Bakterienwachstum nach 24 h Inkubation; -: kein Bakterienwachstum nach 24 h Inkubation
Protocol: (§1) Zur Untersuchung des Einflusses von BBG auf die bakteriostatische Wirkung wurden Bakterien 24 h mit erfindungsgemäßen Zusammensetzungen, Benzalkoniumchlorid (BAK) und Octenidin (Oct) als Bakteriostatikum enthielten, inkubiert. Wenn sich die Inkubationsmischung trübte, wurde das als Bakterienwachstum interpretiert. Zum Vergleich wurde Brillantblau R (BBR) anstelle von BBG eingesetzt. Die Ergebnisse sind in den Tabellen 1-4 wiedergegeben. Tabelle 1: Einfluss von BBG und BBR auf die bakteriostatische Wirkung von BAK gegenüber Escherichia coli (E. coli), + = Bakterienwachstum nach 24 h Inkubation, - = kein Bakterienwachstum nach 24 h Inkubation, R = Brillantblau R (BBR), G = Brillantblau G (BBG).
Tabelle 2: Einfluss von BBG und BBR auf die bakteriostatische Wirkung von BAK gegenüber Bacillus sp., + = Bakterienwachstum nach 24 h Inkubation, - = kein Bakterienwachstum nach 24 h Inkubation, R = Brillantblau R (BBR), G = Brillantblau G (BBG).

Bacillus subtilis = assay: Bacteriostatic effect of Octenidin with BBG: turbidity after 24 h incubation; type: cell-based; design: key: +: Bakterienwachstum nach 24 h Inkubation; -: kein Bakterienwachstum nach 24 h Inkubation
Protocol: as §1
(§2) Tabelle 4: Einfluss von BBG auf die bakteriostatische Wirkung von Octenidin (Oct) gegenüber Gram-positiven Bakterien., + = Bakterienwachstum nach 24 h Inkubation, - = kein Bakterienwachstum nach 24 h Inkubation, +/- = geringes Wachstum nach 24 h Inkubation, BBG = Brillantblau G.

[1] = test system: Clavibacter michiganensis; assay: as above; type: cell-based; design: key: +: Bakterienwachstum nach 24 h Inkubation; -: kein Bakterienwachstum nach 24 h Inkubation
Protocol: as §1, §2

## CCOc1ccc(Nc2ccc(C(=C3C=CC(=[N+](CC)Cc4cccc(S(=O)(=O)[O-])c4)C=C3C)c3ccc(N(CC)Cc4cccc(S(=O)(=O)O)c4)cc3C)cc2)cc1 [BBG, Brillantblau G]
HCE-Zellen
  Überleben: leichten Erniedrigung des Überlebens
HCE-Zellen; BBG 0,025% with BAK, 60 min Einwirkzeit, PBS (Figur 1)
  Schutzwirkung (=erhöhtes Zellüberleben): noch deutlich vorhanden
HCE-Zellen; BBG 0,025 Gew.-% with CPC, 5 min and also 30 min Einwirkzeit (Figur 4)
  CPC-Konzentration, bis zu der der Schutzeffekt gegeben ist: ~0,02%
HCE-Zellen; BBG 0,025 Gew.-% with Chlorhexidin (Chlorhexidindigluconat), 5 and 30 min, compared with the CPC result (Figur 5)
  Schutzeffekt: Ähnliches gilt
HCE-Zellen; BBG 0,025 Gew.-%, 5 min Inkubation, highest Oct concentration tested (Figur 3)
  Oct-Konzentration, bis zu der BBG den zellschädigenden Effekt verhindert: ≤ 0,01%
HCE-Zellen; BBG 0,025 Gew.-%, 30 min Einwirkzeit (Figur 3)
  Oct-Konzentration, ab der der Schutz nicht mehr maximal ist: ≥ 0,009 Gew.-%
HCE-Zellen; dye given together with the bacteriostatic agent
  Schutzwirkung (zelltoxische Wirkung der Bakteriostatika bei gleichzeitiger Gabe): stark reduziert
HCE-Zellen; höhere BAK-Konzentration (BAK 0,008%), PBS and BSS (Figur 2)
  BBG-Konzentration, die für die Schutzwirkung notwendig ist: 0,015%
HCE-Zellen; niedrigere BAK-Konzentration (BAK 0,003%), PBS and BSS (Figur 2)
  BBG-Konzentration, bei der die Schutzwirkung einsetzt: 0,003%
Bacillus sp.; 0.007% G + BAK 0.001%
  Bakterienwachstum nach 24 h Inkubation: -
Bacillus sp.; 0.007% G + BAK 0.01%
  Bakterienwachstum nach 24 h Inkubation: -
Bacillus sp.; 0.030% G, Kein BAK
  Bakterienwachstum nach 24 h Inkubation: +
Bacillus sp.; dye alone, no BAK (rechte Spalte, Tabelle 2)
  Einfluss auf das Bakterienwachstum: beeinflussen das Bakterienwachstum nicht
Bacillus subtilis; 0,007% BBG + Octenidin 0,01%
  Bakterienwachstum nach 24 h Inkubation: -
Bacillus subtilis; 0,007% BBG + Octenidin 0,002%
  Bakterienwachstum nach 24 h Inkubation: +
Bacillus subtilis; 0,007% BBG + Octenidin 0,003%
  Bakterienwachstum nach 24 h Inkubation: -
Bacillus subtilis; 0,007% BBG + Octenidin 0,005%
  Bakterienwachstum nach 24 h Inkubation: -
Bacillus subtilis; 0,007% BBG + Octenidin 0,007%
  Bakterienwachstum nach 24 h Inkubation: -
Bacillus subtilis; 0,007% BBG + Octenidin 0,009%
  Bakterienwachstum nach 24 h Inkubation: -
Bacillus subtilis; 0,007% BBG, Octenidin 0%
  Bakterienwachstum nach 24 h Inkubation: +
Bacillus subtilis; 0,015% BBG + Octenidin 0,01%
  Bakterienwachstum nach 24 h Inkubation: -
Bacillus subtilis; 0,015% BBG + Octenidin 0,002%
  Bakterienwachstum nach 24 h Inkubation: +
Bacillus subtilis; 0,015% BBG + Octenidin 0,003%
  Bakterienwachstum nach 24 h Inkubation: +
Bacillus subtilis; 0,015% BBG + Octenidin 0,005%
  Bakterienwachstum nach 24 h Inkubation: -
Bacillus subtilis; 0,015% BBG + Octenidin 0,007%
  Bakterienwachstum nach 24 h Inkubation: -
Bacillus subtilis; 0,015% BBG + Octenidin 0,009%
  Bakterienwachstum nach 24 h Inkubation: -
Bacillus subtilis; 0,015% BBG, Octenidin 0%
  Bakterienwachstum nach 24 h Inkubation: +
Bacillus subtilis; 0,030% BBG + Octenidin 0,01%
  Bakterienwachstum nach 24 h Inkubation: -
Bacillus subtilis; 0,030% BBG + Octenidin 0,002%
  Bakterienwachstum nach 24 h Inkubation: +
Bacillus subtilis; 0,030% BBG + Octenidin 0,003%
  Bakterienwachstum nach 24 h Inkubation: +
Bacillus subtilis; 0,030% BBG + Octenidin 0,005%
  Bakterienwachstum nach 24 h Inkubation: +
Bacillus subtilis; 0,030% BBG + Octenidin 0,007%
  Bakterienwachstum nach 24 h Inkubation: +
Bacillus subtilis; 0,030% BBG + Octenidin 0,009%
  Bakterienwachstum nach 24 h Inkubation: -
Bacillus subtilis; 0,030% BBG, Octenidin 0%
  Bakterienwachstum nach 24 h Inkubation: +
[1]; 0,007% BBG + Octenidin 0,01%
  Bakterienwachstum nach 24 h Inkubation: -
[1]; 0,007% BBG + Octenidin 0,002%
  Bakterienwachstum nach 24 h Inkubation: +
[1]; 0,007% BBG + Octenidin 0,003%
  Bakterienwachstum nach 24 h Inkubation: -
[1]; 0,007% BBG + Octenidin 0,005%
  Bakterienwachstum nach 24 h Inkubation: -
[1]; 0,007% BBG + Octenidin 0,007%
  Bakterienwachstum nach 24 h Inkubation: -
[1]; 0,007% BBG + Octenidin 0,009%
  Bakterienwachstum nach 24 h Inkubation: -
[1]; 0,007% BBG, Octenidin 0%
  Bakterienwachstum nach 24 h Inkubation: +
[1]; 0,015% BBG + Octenidin 0,01%
  Bakterienwachstum nach 24 h Inkubation: -
[1]; 0,015% BBG + Octenidin 0,002%
  Bakterienwachstum nach 24 h Inkubation: +
[1]; 0,015% BBG + Octenidin 0,003%
  Bakterienwachstum nach 24 h Inkubation: +
[1]; 0,015% BBG + Octenidin 0,005%
  Bakterienwachstum nach 24 h Inkubation: -
[1]; 0,015% BBG + Octenidin 0,007%
  Bakterienwachstum nach 24 h Inkubation: -
[1]; 0,015% BBG + Octenidin 0,009%
  Bakterienwachstum nach 24 h Inkubation: -
[1]; 0,015% BBG, Octenidin 0%
  Bakterienwachstum nach 24 h Inkubation: +
[1]; 0,030% BBG + Octenidin 0,01%
  Bakterienwachstum nach 24 h Inkubation: -
[1]; 0,030% BBG + Octenidin 0,002%
  Bakterienwachstum nach 24 h Inkubation: +
[1]; 0,030% BBG + Octenidin 0,003%
  Bakterienwachstum nach 24 h Inkubation: +
[1]; 0,030% BBG + Octenidin 0,005%
  Bakterienwachstum nach 24 h Inkubation: +
[1]; 0,030% BBG + Octenidin 0,007%
  Bakterienwachstum nach 24 h Inkubation: +
[1]; 0,030% BBG + Octenidin 0,009%
  Bakterienwachstum nach 24 h Inkubation: -
[1]; 0,030% BBG, Octenidin 0%
  Bakterienwachstum nach 24 h Inkubation: +
